Consider 20 compounds from patent US20040198743A1 (Schering Corporation, priority 2003, published 2004).

Test [1] deals with cutaneous microvascular permeability produced by compound 48/80. As to the kind of experiment: Cutaneous microvascular permeability (Evans blue extravasation) elicited by intradermal compound 48/80. The format is in vivo, guinea pig. As to conditions: for effect on baseline Evans blue leakage (dye leakage due to i.d. saline administration): CTM 1.0 mg/kg, THIO 1.0 mg/kg, CLOB 0.3 mg/kg, i.v.; for % Inhibition of Compound 48/80 Skin Responses: treatment i.v. 10 minutes before, each drug 1 mg/kg in Table 3, mean ± SEM; for effect of H3 antagonist alone on cutaneous permeability elicited by compound 48/80: THIO 1.0 mg/kg i.v., CLOB 0.3 mg/kg i.v., given alone.

For test [2], the target named is T1, Histamine Receptor H3 (Homo sapiens, UniProt Q9Y5N1).
T1 construct: expressed in transfected cells; host or cells: HEK293
T1 sequence (Q9Y5N1 whole entry): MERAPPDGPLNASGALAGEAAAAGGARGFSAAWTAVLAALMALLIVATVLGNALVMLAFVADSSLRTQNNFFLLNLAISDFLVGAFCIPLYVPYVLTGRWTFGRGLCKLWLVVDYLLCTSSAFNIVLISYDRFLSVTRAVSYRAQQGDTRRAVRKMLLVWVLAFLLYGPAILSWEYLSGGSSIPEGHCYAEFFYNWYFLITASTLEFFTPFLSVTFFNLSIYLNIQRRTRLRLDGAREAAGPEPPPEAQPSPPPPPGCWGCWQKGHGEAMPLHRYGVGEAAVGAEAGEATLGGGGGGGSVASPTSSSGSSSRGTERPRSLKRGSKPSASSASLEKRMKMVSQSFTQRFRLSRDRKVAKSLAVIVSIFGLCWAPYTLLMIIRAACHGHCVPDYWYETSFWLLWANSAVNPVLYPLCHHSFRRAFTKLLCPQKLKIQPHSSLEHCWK
As to the kind of experiment: Membrane binding assay, [3H]-N'-methylhistamine for H3 binding. On the procedure:
(§1) Materials. Rat and guinea-pig brains were obtained frozen from Rockland Immunochemicals (Gilbertsville, Pa.). Cell lines expressing recombinant human receptors were generated by using standard transfection techniques. The following radioligands were obtained from Dupont NEN (Boston, Mass.): [^3H]-pyrilamine, 23 Ci/mmol for H 1 binding and [^3H]-N′-methylhistamine, 82 Ci/mmol for H3 binding.
(§2) Methods. Recombinant cell lines (i.e., human H1—CHO cells and human H3-HEK293) were cultured in Dulbecco's modified Eagle's medium/10% fetal bovine serum supplemented with 2 mM glutamine, penicillin (100 U/ml), and streptomycin (100 μg/ml) in a humidified 5% CO2 atmosphere at 37° C. Selection was maintained with 0.5 mg geneticin/ml. Cells were harvested for membrane preparation by aspirating media, replacing it with Hanks' balanced salt solution/5 mM EDTA, and incubating flasks for 10 minutes at 37° C. Cells were pelleted by centrifugation at 1000×g for ten minutes at 4° C.
(§3) Membrane preparation. Membranes were prepared by disrupting cells or tissue in at least ten volumes of ice-cold 50 mM Tris-HCl, pH 7.5 at 25° C., with a Polytron. Homogenates were centrifuged ten minutes at 1000×g and the supernatants were then centrifuged for ten minutes at 50,000×g. Pellets from this centrifugation step were resuspended with a Polytron, a sample was taken for protein determination (BCA; Pierce; Rockford, Ill.), and the resuspension was again centrifuged at 50,000×g. Brain membranes were stored as pellets, cell membranes as suspensions of 1 mg protein/ml Tris buffer at −20° C.
(§4) Binding assays. […] Nonspecific binding was determined in the presence of 10^−6 M chlorpheniramine for H1 binding or 10^−6 M clobenpropit for H3 binding. Assay mixtures were incubated for 30 minutes at 30° C. in polypropylene, 96-well, deep-well plates then filtered through 0.3% polyethylenimine-soaked GF/B filters. These were washed three times with 1.2 ml of Tris buffer, dried in a microwave oven, impregnated with Meltilex wax scintillant and counted at 40% efficiency in a Betaplate scintillation counter (Wallac). IC50 values were determined by interpolation or by nonlinear, least-squares, curve-fitting with the Prism program (GraphPad Software). Ki values were determined in the manner of Cheng and prusoff (Cheng, et al., (1973) Biochem. Pharm. 22:3099-3108).

For test [3], the target named is T2, Histamine Receptor H1 (Homo sapiens, UniProt P35367).
T2 construct: expressed in transfected cells; host or cells: CHO
T2 sequence (P35367 whole entry): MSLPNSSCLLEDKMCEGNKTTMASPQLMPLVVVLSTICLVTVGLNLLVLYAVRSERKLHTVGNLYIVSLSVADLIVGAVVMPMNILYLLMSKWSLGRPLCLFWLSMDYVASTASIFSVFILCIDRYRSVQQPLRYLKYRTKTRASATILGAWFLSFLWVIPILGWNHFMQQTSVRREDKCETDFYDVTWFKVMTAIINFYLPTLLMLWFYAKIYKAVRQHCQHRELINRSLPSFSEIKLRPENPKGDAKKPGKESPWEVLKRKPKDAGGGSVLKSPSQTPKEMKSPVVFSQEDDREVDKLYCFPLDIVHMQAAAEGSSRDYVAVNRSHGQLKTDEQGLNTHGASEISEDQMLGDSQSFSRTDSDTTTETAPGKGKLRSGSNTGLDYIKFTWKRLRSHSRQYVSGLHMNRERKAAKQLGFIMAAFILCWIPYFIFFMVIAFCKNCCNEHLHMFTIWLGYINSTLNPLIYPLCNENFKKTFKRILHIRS
As to the kind of experiment: Membrane binding assay, [3H]-pyrilamine for H1 binding. The protocol: as §1, §2, §3, §4

Molecules are shown by their SMILES. “And” between values parts separate entries of the source, which are not always exact repeats. Equal entries are not always repeated.

Consider `CN(C)CCC(c1ccc(Cl)cc1)c1ccccn1` (stereo not shown) [CTM, chlorpheniramine], for which, in test [1], the “effect on baseline Evans blue leakage (dye leakage due to i.d. saline administration)” value (from here on “effect on baseline Evans blue leakage”) is “Neither CTM (1.0 mg/kg, i.v.), THIO (1.0 mg/kg, i.v.) nor CLOB (0.3 mg/kg, i.v.) had any effect”. The “% Inhibition of Compound 48/80 Skin Responses” value in test [1] (cpd 48/80 0.0003% i.d.) was 17%±4% and 17.3 ± 3.6%; in test [1] (cpd 48/80 0.001% i.d.), 31%±4% and 31.5 ± 3.7 %; in test [1] (cpd 48/80 0.003% i.d.) it was 32%±4% and 31.8 ± 3.8 %; in test [1] (cpd 48/80 0.01% i.d.) it was 37%±4% and 36.7 ± 3.8 %.

Take `NC(=NCc1ccc(Cl)cc1)SCCCc1cnc[nH]1` [Clobenpropit, clobenpropit]: in test [1], the “effect on baseline Evans blue leakage” value was “Neither CTM (1.0 mg/kg, i.v.), THIO (1.0 mg/kg, i.v.) nor CLOB (0.3 mg/kg, i.v.) had any effect”. Besides, the “effect of H3 antagonist alone on cutaneous permeability elicited by compound 48/80” value in test [1] (listed as CLOB) is given as “no observable effect”; in test [1] (listed as clobenpropit), “does not alter”.

The Ki is the dissociation constant of the complex between target and ligand, obtained from inhibition or displacement. A high value points to lower affinity. With `O=C(c1cnc2ccccc2c1)N1CCC(Cc2c[nH]cn2)CC1` [Formula 17], the inhibitory constant (Ki) in test [2] was found to be 55 nM.

In test [2], `O=C(c1ccccn1)N1CCC(Cc2c[nH]cn2)CC1` [Formula 18] gave a Ki of 2 nM.

`CC(C)(C)CCC#C[C@@H]1C[C@H]1c1c[nH]cn1` [Formula 19] gave a Ki in test [2] of 3 nM. This Ki is about 1.5-fold higher than that of the compound before.

As for `O=C(CCN1CCC(Cc2c[nH]cn2)CC1)Nc1cccc(Cl)c1` [Formula 20], the values for the inhibition constant (Ki) in test [2] and in test [3] were 0.8 nM and 330 nM, respectively.

Consider `O=S(=O)(c1ccc(Cl)cc1)N1CCC(CCc2c[nH]cn2)C1` (stereo not shown) [Formula 21], for which the values for the Ki in test [2] and in test [3] were 6 nM and 660 nM, respectively.

With `c1nc(CC2CCN(CCCOc3ccc(CN4CCCCC4)cc3)CC2)c[nH]1` [Formula 22], the Ki in test [2] came out at 3 nM; in test [3] it was 29 nM.

Regarding `O=C(CCN1CCC(Cc2c[nH]cn2)CC1)NCCc1ccc(Cl)cc1` [Formula 23], the inhibition constant Ki in test [2] worked out at 0.7 nM.

As for `O=C(NCc1ccc(Cc2c[nH]cn2)cc1)Nc1cc(Cl)cc(Cl)c1` [Formula 24], the Ki in test [2] came out at 15 nM.

`CN1CCC(N(C)Cc2ccc(OCCCN3CCC(Cc4c[nH]cn4)CC3)cc2)CC1` [Formula 25] came in with a Ki in test [2] of 4 nM.

In the case of `Clc1ccc(C(=C2CCN(CCCCc3c[nH]cn3)CC2)c2ccccn2)cc1` [Formula 26], the values for the Ki in test [2] and in test [3] were 3 nM and 2 nM, respectively.

Compound `c1ccc2c(c1)C1CC(CNCCCCc3c[nH]cn3)C2c2ccccc21` (stereo not shown) [Formula 27] gave a Ki in test [2] of 19 nM. That is a double-digit nanomolar value.

As for `Clc1ccc(C(CCNCCCCc2c[nH]cn2)c2ccccn2)cc1` (stereo not shown) [Formula 28], the Ki in test [2] stood at 10 nM; in test [3], 310 nM.

`Clc1ccc(C(=C2CCN(CCCCCc3c[nH]cn3)CC2)c2ccccn2)cc1` [Formula 29]: the Ki in test [2] was determined as 8 nM; in test [3], 5 nM.

Turning to `CC(C)(C)c1ccc(S(=O)(=O)NCCCCc2c[nH]cn2)cc1` [Formula 30], in test [2], affinity was put at a Ki of 17 nM.

Regarding `C/C(=C\C(=O)Nc1ccc(Cl)cc1)c1ccc(Cc2c[nH]cn2)cc1` [Formula 31], in test [2], the Ki was 470 nM.

In test [2], `O=C(NCCCCc1c[nH]cn1)C1(c2ccc(Cl)cc2)CCC1` [Formula 32] yielded a Ki of 19 nM.

Consider `O=C(/C=C/c1ccc(Cc2c[nH]cn2)cc1)NCCc1ccc(Cl)cc1` [Formula 33], for which the affinity in test [2], expressed as Ki, was 7 nM.

For `S=C(NC1CCCCC1)N1CCC(c2cnc[nH]2)CC1` [Thioperamide, thioperamide], the “effect on baseline Evans blue leakage” value in test [1] is “Neither CTM (1.0 mg/kg, i.v.), THIO (1.0 mg/kg, i.v.) nor CLOB (0.3 mg/kg, i.v.) had any effect”. Besides, the “effect of H3 antagonist alone on cutaneous permeability elicited by compound 48/80” value in test [1] (listed as THIO) is reported as “no observable effect”; in test [1] (listed as thioperamide) it was “does not alter”.
